What all share (type): functional
In assay [1] the test system is COLO 205. Briefly: Induction of apoptosis in human COLO205 cells assessed as caspase 3/7 activation at 10 uM by FLICA.
The subject of assay [2] is COLO 205. As to the kind of experiment: Induction of apoptosis in human COLO205 cells assessed as caspase 8 activation at 10 uM by FLICA.
The test system of assay [3] is COLO 205. Briefly: Induction of apoptosis in human COLO205 cells assessed as viable cells level at 10 uM after 24 hrs by Annexin V/propidium iodide staining-based fluorescence microscopy.
Assay [4] has as its system COLO 205. As to the kind of experiment: Induction of apoptosis in human COLO205 cells assessed as DNA fragmentation at 10 uM.
Assay [5] relates to COLO 205. As to the kind of experiment: Induction of apoptosis in human COLO205 cells assessed as late apoptosis cells level at 10 uM after 24 hrs by Annexin V/propidium iodide staining-based fluorescence microscopy.
Assay [6] concerns COLO 205. As to the kind of experiment: Induction of apoptosis in human COLO205 cells at 10 uM after 24 hrs by Annexin V/propidium iodide staining-based fluorescence microscopy.
In assay [7] the test system is COLO 205. As to the kind of experiment: Induction of apoptosis in human COLO205 cells assessed as caspase 9 activation at 10 uM by FLICA.
In assay [8] the test system is COLO 205. Briefly: Induction of apoptosis in human COLO205 cells assessed as early apoptosis cells level at 10 uM after 24 hrs by Annexin V/propidium iodide staining-based fluorescence microscopy.
In assay [9] the test system is COLO 205. As to the kind of experiment: Induction of apoptosis in human COLO205 cells assessed as necrotic apoptosis cells level at 10 uM after 24 hrs by Annexin V/propidium iodide staining-based fluorescence microscopy.

For the compound `CC[C@@]1(O)C(=O)OCc2c1cc1n(c2=O)Cc2cc3ccccc3nc2-1` [CAMPTOTHECIN], the Activity is 62% in [1]; 23.5% in [2]; 40% in assay [3]; 80.5% in [4]; 17% in [5]; 53% in assay [6]. The Activity turned out to be 19.5% in assay [7], 42% in [8] and 0% in [9].
